Results from ChEMBL document CHEMBL1201862, “PubChem BioAssay data set” (2004).
Active and inactive are the calls of the source.

How the values were obtained:
[1] = molecular target: T1, Long-chain-fatty-acid--AMP ligase FadD28 (Mycobacterium tuberculosis, UniProt P9WQ59); experiment: Fluorescence polarization aasay to screen for inhibitors that compete for the binding of FadD28 to a bisubstrate Measured in Biochemical System Using Plate Reader - 2147-01_Inhibitor_Dose_CherryPick_Activity.; format: functional, Mycobacterium tuberculosis H37Rv
T1 sequence (P9WQ59 whole entry): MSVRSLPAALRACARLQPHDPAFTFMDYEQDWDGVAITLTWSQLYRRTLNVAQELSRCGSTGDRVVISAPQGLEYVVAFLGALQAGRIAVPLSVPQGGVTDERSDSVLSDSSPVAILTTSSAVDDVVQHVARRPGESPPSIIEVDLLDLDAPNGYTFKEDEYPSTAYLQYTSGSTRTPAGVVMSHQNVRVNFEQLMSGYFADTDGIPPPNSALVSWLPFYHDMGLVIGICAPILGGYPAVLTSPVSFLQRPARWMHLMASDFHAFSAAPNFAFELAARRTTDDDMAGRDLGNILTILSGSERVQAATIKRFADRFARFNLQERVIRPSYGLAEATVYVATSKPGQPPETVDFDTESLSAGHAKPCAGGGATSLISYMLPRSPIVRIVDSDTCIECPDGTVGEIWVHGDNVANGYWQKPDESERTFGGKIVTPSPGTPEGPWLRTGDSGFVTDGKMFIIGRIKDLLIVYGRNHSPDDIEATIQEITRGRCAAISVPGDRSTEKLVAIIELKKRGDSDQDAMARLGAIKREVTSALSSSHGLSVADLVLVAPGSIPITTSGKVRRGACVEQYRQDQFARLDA

[2] = molecular target: T2, Adenosylmethionine-8-amino-7-oxononanoate aminotransferase (Mycobacterium tuberculosis, UniProt P9WQ81); experiment: Mycobacterium tuberculosis BioA enzyme inhibitor Measured in Biochemical System Using Plate Reader - 2163-02_Inhibitor_Dose_CherryPick_Activity.; format: functional, Mycobacterium tuberculosis UT205
T2 sequence (P9WQ81 whole entry): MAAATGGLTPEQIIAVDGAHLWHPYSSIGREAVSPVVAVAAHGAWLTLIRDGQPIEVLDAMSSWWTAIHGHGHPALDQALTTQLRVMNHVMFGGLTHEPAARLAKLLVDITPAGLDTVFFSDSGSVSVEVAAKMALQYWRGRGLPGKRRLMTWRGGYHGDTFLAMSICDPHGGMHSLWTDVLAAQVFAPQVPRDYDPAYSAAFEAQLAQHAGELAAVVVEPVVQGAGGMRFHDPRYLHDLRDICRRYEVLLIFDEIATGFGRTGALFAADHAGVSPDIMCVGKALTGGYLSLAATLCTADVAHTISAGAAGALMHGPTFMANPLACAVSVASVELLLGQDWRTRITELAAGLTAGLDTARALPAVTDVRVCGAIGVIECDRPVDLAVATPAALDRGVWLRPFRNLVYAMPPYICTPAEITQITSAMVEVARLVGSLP

[3] = Luminescence Cell-Based Dose Response to Identify Activators of 5'UTR Stem-Loop Driven Prion Protein mRNA Translation in H4-C Neuroglioblastoma Cells. [Related pubchem assays: 1829 (Project Summary), 1814 (Primary HTS)]; format: functional
[4] = molecular target: T3, Oxysterols receptor LXR-beta (Homo sapiens, UniProt P55055); format: functional, cell-based;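 note: agonist activity at LXR measured by a cell-based luminescence readout across a dose range, run as a counterscreen for daf-12 agonists; HEK293 cells with Gal4-LXR fusion and GAL4-driven luciferase reporter; potency for activation of Gal4-LXR reporter so compounds are agonists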
T3 sequence (P55055 whole entry): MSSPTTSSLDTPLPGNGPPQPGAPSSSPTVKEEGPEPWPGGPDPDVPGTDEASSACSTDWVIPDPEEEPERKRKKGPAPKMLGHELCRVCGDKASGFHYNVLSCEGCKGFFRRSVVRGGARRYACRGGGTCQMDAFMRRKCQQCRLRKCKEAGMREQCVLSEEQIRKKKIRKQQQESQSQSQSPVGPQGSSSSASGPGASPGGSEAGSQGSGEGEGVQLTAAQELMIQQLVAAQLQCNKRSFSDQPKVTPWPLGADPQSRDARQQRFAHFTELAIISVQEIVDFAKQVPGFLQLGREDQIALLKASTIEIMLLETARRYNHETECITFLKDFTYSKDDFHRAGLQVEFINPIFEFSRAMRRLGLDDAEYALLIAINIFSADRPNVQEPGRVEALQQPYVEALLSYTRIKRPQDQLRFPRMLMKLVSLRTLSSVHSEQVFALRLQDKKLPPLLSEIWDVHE

[5] = Luminescence Cell-Based Dose Response to Identify Activators of Luciferase Translation or Activity in H4-C Neuroglioblastoma Cells. [Related pubchem assays: 1829 (Project Summary), 1814 (Primary HTS)]; format: functional
[6] = Luminescence Cell-Based Dose Response HTS to Identify Activators of Luciferase Translation or Activity in H4 […] Cells. [Related pubchem assays: 1829 (Project Summary), 1814 (Primary HTS)]; format: functional
[7] = Luminescence Cell-Based Dose Confirmation to Identify Activators of 5'UTR Stem-Loop Driven Alpha-Synuclein mRNA Translation in H4 Neuroglioblastoma Cells. [Related pubchem assays: 1829 (Project Summary), 1814 (Primary HTS)]; format: functional
[8] = human group III sPLA2 inhibitors, dose response, biochemical, QFRET, IC50 (AID 743457);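 note: green fluorescence rise as the enzyme cleaves BODIPY PC-A2 in liposomes; potency for inhibition of the enzyme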
[9] = inhibitors of firefly luciferase expression or activity, dose response, H4 neuroglioma cells, luminescence (AID 1990); format: functional, cell-based
[10] = inhibitors of SNCA 5'UTR-driven reporter translation, confirmation, H4 neuroglioma cells, luminescence (AID 1988); format: functional, cell-based
INS1 = experiment: beta cell apoptosis inhibitors, cytokine rescue, dose response, luminescence, retest (AID 449756); format: functional, cell-based; conditions: Rattus norvegicus;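 note: cell death triggered by IL-1 beta plus TNF-alpha plus IFN-gamma mixture; protective hits raise ATP signal compared with cytokine alone wells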
[11] = A549 cell cytotoxicity, dose response, cytotoxicity control, plate reader, cherry-pick, antagonist series (AID 743412); format: functional, cell-based
[12] = HepG2 cell cytotoxicity, dose response, cytotoxicity control for non-replicating M. tuberculosis project (AID 489018); format: functional; conditions: Mycobacterium tuberculosis
[13] = NIH-3T3 fibroblast cytotoxicity, dose response, cytotoxicity control, cell-based, fluorescence, Alamar Blue, secondary assay (AID 2327); format: functional;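 note: NIH-3T3 mouse fibroblasts cultured with fluconazole at 8 µg/mL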
cells [14] = format: functional
[15] = LGR2 antagonists, dose response, cell-based, HEK293, CRE-luciferase reporter, cherry pick, set 2 (AID 743343); format: functional;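 note: transfected cells were stimulated with diluted bursicon conditioned medium after compound addition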
[16] = THP-1 cell cytotoxicity, dose response, cytotoxicity control for non-replicating M. tuberculosis project (AID 489025); format: functional
[17] = Luminescence Cell-Based Dose Response HTS to Identify Inhibitors of 5'UTR Stem-Loop Driven Prion Protein mRNA Translation in H4 Neuroglioblastoma Cells. [Related pubchem assays: 1827 (Project Summary), 1813 (Primary HTS)]; format: functional
[18] = HepG2 cell cytotoxicity, dose response, cytotoxicity control, plate reader, cherry-pick, antagonist series (AID 743416); format: functional, cell-based
[19] = Vero E6 cell cytotoxicity, dose response, cytotoxicity control for non-replicating M. tuberculosis project, secondary assay (AID 492998); format: functional, VeroE6; conditions: Vero C1008
[20] = C. albicans growth with fluconazole, confirmation, fluorescence, retest (AID 2467); format: functional, cell-based
[21] = molecular target: Disintegrin and metalloproteinase domain-containing protein 17 (Homo sapiens, UniProt P78536); experiment: exosite inhibitors of ADAM17, dose response, biochemical (AID 743260)
[22] = ADAM10 protease inhibitors, dose response, selectivity assay for ADAM17 exosite inhibitor project, biochemical, FRET peptide substrate, recombinant human ADAM10 (AID 743259);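 note: ADAM10 enzyme cleaving a FRET peptide substrate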
[23] = HEp-2 cell cytotoxicity, dose response, cytotoxicity control for RSV inhibitor project, HTS (AID 2410); format: functional; conditions: human respiratory syncytial virus
[24] = HEK293T cytotoxicity, dose response, cytotoxicity control for miR-122 modulator project, cell-based, activator set, cherry-pick (AID 720690); format: functional;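 note: HEK293T human cells scored for general mammalian cytotoxicity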
Caspase-6 = molecular target: T4, Caspase-6 (Homo sapiens, UniProt P55212); experiment: human caspase-6 inhibitors, dose response, biochemical, VEID-R110 fluorescence, cherry-pick (AID 720632)
T4 sequence (P55212 whole entry): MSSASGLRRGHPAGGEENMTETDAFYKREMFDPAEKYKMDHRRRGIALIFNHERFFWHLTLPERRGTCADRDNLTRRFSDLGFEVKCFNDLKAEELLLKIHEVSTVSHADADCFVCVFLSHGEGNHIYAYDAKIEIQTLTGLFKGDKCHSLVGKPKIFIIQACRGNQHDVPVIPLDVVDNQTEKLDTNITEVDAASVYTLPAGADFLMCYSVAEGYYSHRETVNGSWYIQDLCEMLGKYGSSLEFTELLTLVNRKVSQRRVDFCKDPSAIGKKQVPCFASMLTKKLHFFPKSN

[25] = AlphaScreen signal interference compounds, dose response, artefact control for ARNT-TACC3 interaction inhibitor project, biochemical, luminescence, cherry-pick (AID 651705); format: functional;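 note: AlphaScreen bead proximity signal that flags compounds interfering with the detection technology; potency reflects signal decrease which marks the compound as an assay artifact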
cells [26] = format: functional, cell-based
cells [27] = format: functional, cell-based; remark: listed apart in the source
[28] = Luminescence Cell-Based Dose Confirmation HTS to Identify Inhibitors of Platelet Dense Granule Release. [Related pubchem assays: 1663 (Primary HTS), 1678 (Summary of Project)]; format: functional
[29] = molecular target: Luciferin 4-monooxygenase (Photinus pyralis, UniProt P08659); experiment: firefly luciferase enzyme inhibitors, dose response, biochemical, luminescence (AID 1891)
Streptokinase A = molecular target: T5, Streptokinase A (Streptococcus pyogenes serotype M1, UniProt P10520); experiment: S. pyogenes streptokinase expression inhibitors, potency, dose response, plasminogen activation absorbance, OD405 (AID 1914); format: functional, Streptococcus pyogenes M1 GAS;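 note: secreted streptokinase activity via plasminogen activation per viability signal from cell pellet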
T5 sequence (P10520 whole entry): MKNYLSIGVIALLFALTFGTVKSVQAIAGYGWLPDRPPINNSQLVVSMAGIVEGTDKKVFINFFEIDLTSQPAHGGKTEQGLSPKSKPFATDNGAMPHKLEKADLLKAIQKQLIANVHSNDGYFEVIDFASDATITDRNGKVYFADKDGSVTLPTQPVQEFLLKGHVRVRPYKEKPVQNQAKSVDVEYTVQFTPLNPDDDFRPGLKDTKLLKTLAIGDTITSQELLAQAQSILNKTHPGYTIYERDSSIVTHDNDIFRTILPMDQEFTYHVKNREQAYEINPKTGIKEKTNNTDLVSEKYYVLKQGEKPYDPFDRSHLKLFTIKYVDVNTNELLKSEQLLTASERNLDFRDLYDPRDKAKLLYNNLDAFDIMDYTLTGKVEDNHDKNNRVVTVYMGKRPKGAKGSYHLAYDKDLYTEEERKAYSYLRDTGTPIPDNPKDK

Streptococcus = experiment: Group A Streptococcus viability loss, dose response, counter-screen for streptokinase expression inhibitor project, luminescence, BacTiterGlo (AID 1915); format: functional, organism-based; conditions: Streptococcus;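 note: potency for reduction of bacterial viability or growth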
[30] = test system: Streptococcus sp. 'group A'; experiment: growth inhibition of control SK(-) GAS strain, dose response, counter-screen for streptokinase expression inhibitor project, luminescence, kanamycin, BacTiterGlo, confirmation (AID 1900); format: functional, organism-based; conditions: Streptococcus sp. 'group A'

Sequence of Disintegrin and metalloproteinase domain-containing protein 17 (P78536 whole entry, the tested form may be a part): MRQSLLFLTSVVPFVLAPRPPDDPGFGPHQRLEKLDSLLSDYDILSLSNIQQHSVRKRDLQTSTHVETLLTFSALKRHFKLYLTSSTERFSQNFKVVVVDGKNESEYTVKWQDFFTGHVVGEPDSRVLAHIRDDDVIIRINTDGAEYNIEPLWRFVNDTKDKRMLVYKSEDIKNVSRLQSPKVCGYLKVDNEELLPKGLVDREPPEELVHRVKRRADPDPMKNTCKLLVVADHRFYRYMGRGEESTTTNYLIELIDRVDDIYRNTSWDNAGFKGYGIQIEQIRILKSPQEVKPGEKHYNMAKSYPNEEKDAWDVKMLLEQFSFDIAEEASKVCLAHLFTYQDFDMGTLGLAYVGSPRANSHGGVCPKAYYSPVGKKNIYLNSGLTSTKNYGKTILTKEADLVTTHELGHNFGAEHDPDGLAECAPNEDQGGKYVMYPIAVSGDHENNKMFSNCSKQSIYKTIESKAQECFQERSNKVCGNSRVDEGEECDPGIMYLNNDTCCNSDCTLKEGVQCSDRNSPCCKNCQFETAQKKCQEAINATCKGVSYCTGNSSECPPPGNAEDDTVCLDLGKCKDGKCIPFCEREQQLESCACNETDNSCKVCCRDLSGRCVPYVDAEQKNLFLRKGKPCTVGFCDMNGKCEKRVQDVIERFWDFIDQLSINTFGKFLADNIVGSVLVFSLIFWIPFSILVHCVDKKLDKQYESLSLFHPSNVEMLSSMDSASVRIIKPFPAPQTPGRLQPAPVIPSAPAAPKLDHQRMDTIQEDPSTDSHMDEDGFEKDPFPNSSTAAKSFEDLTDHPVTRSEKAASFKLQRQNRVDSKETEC
Sequence of Luciferin 4-monooxygenase (P08659 whole entry): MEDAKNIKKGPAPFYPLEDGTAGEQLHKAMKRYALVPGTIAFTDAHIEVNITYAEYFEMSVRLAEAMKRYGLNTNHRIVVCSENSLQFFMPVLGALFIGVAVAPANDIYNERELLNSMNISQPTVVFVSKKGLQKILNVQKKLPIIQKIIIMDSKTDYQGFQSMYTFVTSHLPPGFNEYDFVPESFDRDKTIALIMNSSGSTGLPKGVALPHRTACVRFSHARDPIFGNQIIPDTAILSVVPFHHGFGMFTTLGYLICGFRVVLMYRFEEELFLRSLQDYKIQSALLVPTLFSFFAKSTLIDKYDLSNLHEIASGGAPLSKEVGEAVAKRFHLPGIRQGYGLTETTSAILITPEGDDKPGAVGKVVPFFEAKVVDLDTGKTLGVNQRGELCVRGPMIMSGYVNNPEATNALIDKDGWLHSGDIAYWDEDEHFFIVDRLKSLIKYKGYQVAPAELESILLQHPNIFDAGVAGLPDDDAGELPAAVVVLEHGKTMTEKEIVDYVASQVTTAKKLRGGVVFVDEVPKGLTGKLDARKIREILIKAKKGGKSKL

CC(Oc1ccccc1)C(=O)OCC(=O)N1CC(=O)Nc2ccccc21 (stereo unspecified)
AC50 [1]: > 100 µM (inactive)

CN1c2ccc(-c3ccccc3)cc2[C@H]2[C@H](CCN2C(=O)Cc2ccccn2)[C@H]1CO
AC50 [2]: 6.13 µM (active)

CCOC(=O)c1cnc(SCc2ccccc2)nc1N
EC50 [3]: 0.342 µM (active)
EC50 [4]: > 67.5 µM (inactive)
EC50 [5]: 0.278 µM (active)
EC50 [6]: < 0.1 µM (active)
EC50 [7]: 0.23 µM (active)

O=C(NNC(=S)NC1CCCCC1)c1ccccc1Cl
IC50 [8]: > 122 µM (inactive)

CC(C)c1ccc2c(c1)C(N1CCNCC1)Cc1ccc(F)cc1S2 (stereo unspecified)
EC50 [9]: > 120 µM (not active)
EC50 [10]: 11.6 µM (active)
AC50 (INS1): 6.71 µM (active)
AC50 [11]: 6.71 µM (active)
CC50 [12]: 18.1 µM (active)
EC50 [13]: > 150 µM (inactive)
IC50 (cells [14]): 14.2 µM (active)
AC50 [15]: 38.2 µM (active)
CC50 [16]: 16.3 µM (active)
EC50 [17]: 25.7 µM (active)
AC50 [18]: 7.87 µM (active)
CC50 [19]: 12.3 µM (active)
EC50 [20]: > 38 µM (not active)

Cc1ccc(NC(=O)C(OC(=O)c2cc(C)oc2C)c2ccccc2)cc1 (stereo unspecified)
IC50 [21]: > 69.5 µM (inactive)
IC50 [22]: 24.5 µM (inactive)

Cc1cccc(C(=N)NOC(=O)c2cccs2)c1
EC50 [4]: > 67.5 µM (inactive)

COc1cc(NC(=O)C/C(C)=N/NC(=O)Cc2ccccc2)c(OC)cc1Cl
IC50 [21]: > 69.5 µM (inactive)
IC50 [22]: > 69.5 µM (inactive)

O=c1c2ccccc2cnn1-c1ccc2ccccc2c1
EC50 [4]: > 67.5 µM (inactive)

O=c1[nH]c(N2CCN(Cc3ccc4c(c3)OCO4)CC2)nc2c1CCC2
AC50 [2]: 0.93 µM (active)

COc1ccc2c(c1)C(C)=CC(C)(C)N2C(=O)CNCc1ccc2c(c1)OCO2
CC50 [23]: > 50 µM (active)
AC50 [24]: 40.4 µM (active)

CN(c1ccc(OCC(=O)Nc2cc(Cl)ccc2C(=O)O)cc1)S(=O)(=O)c1ccc(F)cc1
AC50 (Caspase-6): 27.2 µM (active)

Clc1cccc(-c2ccc(CNCc3ccccn3)o2)c1
IC50 (cells [14]): 3.05 µM (active)
AC50 [25]: 94.4 µM (active)

CCC(NCCc1ccccc1)=C1C(=O)NC(=O)NC1=O
IC50 (cells [26]): > 29.9 µM (inactive)
EC50 (cells [27]): > 29.9 µM (inactive)
EC50 [28]: 14.5 µM (active)
EC50 [29]: > 112 µM (not active)

COC(=O)C1=C(c2ccccc2OCc2ccccc2)C[C@@H]2CC[C@H]1N2C(=O)NCc1ccc(Cl)cc1
IC50 [21]: > 69.5 µM (inactive)
IC50 [22]: > 7.72 µM (active)

O=C(CSc1nc2cc(C(=O)O)ccc2c(=O)n1-c1ccc(F)cc1)Nc1ccc(F)c(F)c1F
AC50 [2]: 2.65 µM (active)

CCc1c(O)n(C2CCCCC2)c(SCC(=O)Nc2nc3ccccc3s2)nc1=O
EC50 (Streptokinase A): 17.1 µM (active)
EC50 (Streptococcus): 122 µM (active)
EC50 [30]: 11.8 µM (active)
AC50 [1]: 29 µM (active)

CC(=O)c1cccc(OCC(O)CNCCc2ccc(Cl)cc2)c1 (stereo unspecified)
IC50 (cells [26]): > 29.9 µM (inactive)
EC50 (cells [27]): > 29.9 µM (inactive)
